Measured values from US20230095836A1, “SUBSTITUTED 5,6-DIPHENYL-3(2H)-PYRIDAZINONES FOR USE AS FUNGICIDES” (FMC Corporation, priority 2020, published 2023).

Tests used:
Assay type in all cases: in vivo
[1] = test system: Zymoseptoria tritici; test: Test A: test solution sprayed on wheat seedlings, inoculated next day with Zymoseptoria tritici (wheat leaf blotch); disease rating (100 = 100% disease control, 0 = no control; dash = not tested)
In short: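 Wheat seedlings sprayed to run-off with test solution, inoculated next day with Z. tritici spores, held 48 h at 24° C in saturated atmosphere, then 17 days at 20° C before rating. Scores are % disease control relative to controls (100 = full control, 0 = none).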

[2] = test system: Puccinia recondita f. sp. tritici; test: Test B: test solution sprayed on wheat seedlings, inoculated next day with Puccinia recondita f. sp. tritici (wheat leaf rust); disease rating (100 = 100% disease control, 0 = no control; dash = not tested)
Excerpt: The resulting test suspensions were then used in Tests A-F. The test solution was sprayed to the point of run-off on wheat seedlings. […] A rating of 100 indicates 100% disease control and a rating of 0 indicates no disease control (relative to the controls). A dash (—) indicates the compound was not tested.

[3] = test system: Blumeria graminis f. sp. tritici; test: Test C: test suspension sprayed on wheat seedlings, inoculated next day with Blumeria graminis f. sp. tritici (wheat powdery mildew); visual disease rating (100 = 100% disease control, 0 = no control; dash = not tested)
In short: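 Wheat seedlings were sprayed to run-off with test suspension, then dusted next day with Blumeria graminis f. sp. tritici spores. After 8 days at 20 °C in a growth chamber, disease was rated visually as percent control relative to untreated controls.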

[4] = test system: Phakopsora pachyrhizi; test: Test D: test solution sprayed on soybean seedlings, inoculated next day with Phakopsora pachyrhizi (Asian soybean rust); visual disease rating (100 = 100% disease control, 0 = no control; dash = not tested)
In short: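 Compounds predissolved in acetone (3% of final volume), suspended at ppm concentrations in 50/50 acetone/water with 250 ppm PEG400, sprayed to run-off on soybean seedlings. Inoculated next day with spores, 24 h saturated atmosphere at 22 °C, then 8 days growth chamber at 22 °C; visual rating, 100 = full control.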

[5] = test system: Botrytis cinerea; test: Test E: test suspension sprayed on tomato seedlings, inoculated next day with Botrytis cinerea (tomato Botrytis); visual disease rating (100 = 100% disease control, 0 = no control; dash = not tested)
In short: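 Tomato seedlings were sprayed to run-off and inoculated next day with Botrytis cinerea spores. They were held 48 h at 20° C in saturated humidity, then 3 days at 24° C. Disease control was rated visually against controls (100 = full, 0 = none).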

[6] = test system: Alternaria solani; test: Test F: test suspension sprayed on tomato seedlings, inoculated next day with Alternaria solani (tomato early blight); visual disease rating (100 = 100% disease control, 0 = no control; dash = not tested)
In short: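 Tomato seedlings sprayed to run-off with test suspension, inoculated next day with A. solani spores, held saturated at 27° C. for 48 h, then 20° C. for 3 days. Disease visually rated as % control relative to untreated controls.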

| Structure (SMILES) | Test A disease control rating ([1]; 50 ppm) | Test B disease control rating ([2]; 50 ppm) | Test C disease control rating ([3]; 50 ppm) | Test D disease control rating ([4]; 50 ppm) | Test E disease control rating ([5]; 50 ppm) | Test F disease control rating ([6]; 50 ppm) | further results |
| --- | --- | --- | --- | --- | --- | --- | --- |
| COc1ccc(-c2nn(C)c(=O)c(OC)c2-c2ccc(F)cc2Cl)c(F)c1 [Compound 166] | 100% | 91% | 79% | 0% | 95% | 67% | – |
| CCc1c(-c2ccc(F)cc2Cl)c(-c2ccc(F)cc2Cl)nn(C)c1=O [Compound 167] | 100% | 100% | 100% | 0% | 86% | 100% | – |
| Cn1nc(-c2ccc(F)cc2Cl)c(-c2ccc(F)cc2Cl)c(CO)c1=O [Compound 168] | 100% | 96% | 72% | 0% | 81% | 0% | – |
| COc1cc(OC)c(Cl)c(-c2nn(C)c(=O)c(C)c2-c2ccc(F)cc2Cl)c1Cl [Compound 169] | 37% | 68% | 43% | 0% | 93% | 0% | – |
| Cn1nc(-c2ccc(F)cc2Cl)c(-c2ccc(F)cc2Cl)c(CCl)c1=O [Compound 170] | 99% | 89% | 76% | 0% | 51% | 80% | – |
| Cn1nc(-c2ccc(F)cc2Cl)c(-c2ccc(F)cc2Cl)c(CF)c1=O [Compound 171] | 99% | 99% | 99% | 0% | 100% | 96% | – |
| Cn1nc(-c2ccc(F)cc2Cl)c(-c2ccc(F)cc2Cl)c(CO)c1=O [Compound 172] | – | – | – | – | – | – | Test A disease control rating ([1]; 250 ppm): 79%; Test B disease control rating ([2]; 250 ppm): 92%; Test C disease control rating ([3]; 250 ppm): 87%; Test D disease control rating ([4]; 250 ppm): 78%; Test E disease control rating ([5]; 250 ppm): 83%; Test F disease control rating ([6]; 250 ppm): 0% |
| CCOc1ccc(Cl)c(-c2nn(C)c(=O)c(C)c2-c2ccc(F)cc2Cl)c1 [Compound 175] | 100% | 100% | 99% | 100% | 98% | 100% | – |
| CON(C)C(=O)c1c(-c2ccc(F)cc2Cl)c(-c2ccc(F)cc2Cl)nn(C)c1=O [Compound 176] | – | – | – | – | – | – | Test A disease control rating ([1]; 250 ppm): 4%; Test B disease control rating ([2]; 250 ppm): 80%; Test C disease control rating ([3]; 250 ppm): 0%; Test D disease control rating ([4]; 250 ppm): 0%; Test E disease control rating ([5]; 250 ppm): 0%; Test F disease control rating ([6]; 250 ppm): 0% |
| Cn1nc(-c2ccc(F)cc2Cl)c(-c2ccc(F)cc2Cl)c(CC#N)c1=O [Compound 177] | 88% | 80% | 0% | 0% | 0% | 0% | – |
| CCc1c(-c2c(F)cccc2F)c(-c2cccc(OC)c2Cl)nn(C)c1=O [Compound 178] | 100% | 100% | 100% | 100% | 93% | 100% | – |
| CCc1c(-c2c(F)cccc2F)c(-c2cc(OC)ccc2Cl)nn(C)c1=O [Compound 179, 6-(2-chloro-5-methoxyphenyl)-5-(2,6-difluorophenyl)-4-ethyl-2-methyl-3(2H)-pyridazinone] | – | – | – | – | – | – | pest or weed control at 50 ppm ([1]; 50 ppm): 100%; pest or weed control at 50 ppm ([2]; 50 ppm): 100%; pest or weed control at 50 ppm ([3]; 50 ppm): 100%; pest or weed control at 50 ppm ([4]; 50 ppm): 100%; pest or weed control at 50 ppm ([5]; 50 ppm): 94%; pest or weed control at 50 ppm ([6]; 50 ppm): 100% |
| CCc1c(-c2c(F)cccc2F)c(-c2cc(OC)cc(F)c2Cl)nn(C)c1=O [Compound 180] | 100% | 100% | 100% | 100% | 99% | 100% | – |
